Reference: paper PMC9851200, “Multiparameter phenotypic screening for endogenous TFEB and TFE3 translocation identifies novel chemical series modulating lysosome function” (Autophagy, 2022)

Legend:
Assay type in all cases: binding
[1] = target: T1, kinases (KINOMEscan panel) (Homo sapiens, UniProt Q9UKI8); conditions: kinase TLK1; NEW KINOMEscan
T1 sequence (Q9UKI8 1-766): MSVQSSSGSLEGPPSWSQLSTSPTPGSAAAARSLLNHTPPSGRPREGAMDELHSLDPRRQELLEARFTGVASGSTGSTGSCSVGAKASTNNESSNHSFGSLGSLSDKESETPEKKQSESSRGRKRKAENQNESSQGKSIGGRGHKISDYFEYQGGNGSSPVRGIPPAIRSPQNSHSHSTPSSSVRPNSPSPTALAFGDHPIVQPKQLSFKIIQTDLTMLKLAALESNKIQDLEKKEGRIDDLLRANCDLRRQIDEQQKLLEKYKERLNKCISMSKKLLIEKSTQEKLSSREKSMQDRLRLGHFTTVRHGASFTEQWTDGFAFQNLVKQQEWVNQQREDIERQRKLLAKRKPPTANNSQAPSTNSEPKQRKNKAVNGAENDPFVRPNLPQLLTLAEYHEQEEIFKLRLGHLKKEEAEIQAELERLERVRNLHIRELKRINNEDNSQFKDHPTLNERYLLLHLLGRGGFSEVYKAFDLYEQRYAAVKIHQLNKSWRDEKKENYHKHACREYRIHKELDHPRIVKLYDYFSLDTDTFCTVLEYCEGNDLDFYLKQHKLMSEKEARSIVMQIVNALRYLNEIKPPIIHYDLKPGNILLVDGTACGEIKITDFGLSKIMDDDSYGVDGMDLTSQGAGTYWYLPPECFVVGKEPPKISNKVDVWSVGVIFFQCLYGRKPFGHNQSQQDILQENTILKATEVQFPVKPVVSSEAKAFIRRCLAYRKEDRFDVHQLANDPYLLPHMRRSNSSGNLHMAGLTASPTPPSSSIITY

[2] = target: kinases (KINOMEscan panel) (Homo sapiens, UniProt Q96GD4); conditions: kinase AURKB; NEW KINOMEscan
[3] = target: kinases (KINOMEscan panel) (Homo sapiens, UniProt P57059); conditions: kinase SIK1; NEW KINOMEscan
[4] = target: kinases (KINOMEscan panel) (Homo sapiens, UniProt P21127); conditions: CDK11B; NEW KINOMEscan
[5] = target: kinases (KINOMEscan panel) (Homo sapiens, UniProt P35916); conditions: FLT4; NEW KINOMEscan
[6] = target: kinases (KINOMEscan panel) (Homo sapiens, UniProt Q9NQU5); conditions: PAK6; NEW KINOMEscan
[7] = target: T2, kinases (KINOMEscan panel) (Homo sapiens, UniProt Q8NG66); conditions: NEW KINOMEscan
T2 sequence (Q8NG66 1-645): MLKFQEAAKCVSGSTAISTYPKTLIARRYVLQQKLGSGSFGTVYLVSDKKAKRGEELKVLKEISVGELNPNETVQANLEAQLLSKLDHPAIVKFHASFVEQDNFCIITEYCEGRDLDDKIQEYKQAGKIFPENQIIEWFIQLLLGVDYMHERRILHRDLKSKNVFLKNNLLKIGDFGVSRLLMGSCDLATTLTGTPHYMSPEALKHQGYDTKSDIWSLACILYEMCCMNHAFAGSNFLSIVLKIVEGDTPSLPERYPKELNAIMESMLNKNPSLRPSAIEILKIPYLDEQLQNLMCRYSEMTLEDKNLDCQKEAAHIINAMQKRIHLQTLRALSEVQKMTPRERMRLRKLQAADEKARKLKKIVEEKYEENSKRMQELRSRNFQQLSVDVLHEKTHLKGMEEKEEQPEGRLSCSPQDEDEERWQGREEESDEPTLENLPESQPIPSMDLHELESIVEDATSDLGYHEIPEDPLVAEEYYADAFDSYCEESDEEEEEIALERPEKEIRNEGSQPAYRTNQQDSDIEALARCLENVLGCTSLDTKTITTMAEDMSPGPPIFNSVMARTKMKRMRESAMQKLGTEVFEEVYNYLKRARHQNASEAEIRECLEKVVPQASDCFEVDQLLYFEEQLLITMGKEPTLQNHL

[8] = target: kinases (KINOMEscan panel) (Homo sapiens, UniProt O43293); conditions: DAPK3; NEW KINOMEscan
Sequence of kinases (KINOMEscan panel) (Homo sapiens, UniProt O43293) (O43293 whole entry): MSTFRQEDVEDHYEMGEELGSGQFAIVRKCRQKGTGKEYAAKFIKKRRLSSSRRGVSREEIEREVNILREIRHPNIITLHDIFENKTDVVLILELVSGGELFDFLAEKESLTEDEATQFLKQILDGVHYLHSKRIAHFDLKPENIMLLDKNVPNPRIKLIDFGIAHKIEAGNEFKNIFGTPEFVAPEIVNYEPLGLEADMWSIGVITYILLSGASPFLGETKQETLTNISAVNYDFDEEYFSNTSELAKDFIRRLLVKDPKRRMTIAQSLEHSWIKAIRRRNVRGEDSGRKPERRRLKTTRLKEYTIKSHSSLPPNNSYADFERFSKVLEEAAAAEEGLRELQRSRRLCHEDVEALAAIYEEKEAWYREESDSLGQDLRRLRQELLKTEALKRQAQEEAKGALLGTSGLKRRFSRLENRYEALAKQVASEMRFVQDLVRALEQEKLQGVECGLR

Sequence of kinases (KINOMEscan panel) (Homo sapiens, UniProt P57059) (P57059 whole entry): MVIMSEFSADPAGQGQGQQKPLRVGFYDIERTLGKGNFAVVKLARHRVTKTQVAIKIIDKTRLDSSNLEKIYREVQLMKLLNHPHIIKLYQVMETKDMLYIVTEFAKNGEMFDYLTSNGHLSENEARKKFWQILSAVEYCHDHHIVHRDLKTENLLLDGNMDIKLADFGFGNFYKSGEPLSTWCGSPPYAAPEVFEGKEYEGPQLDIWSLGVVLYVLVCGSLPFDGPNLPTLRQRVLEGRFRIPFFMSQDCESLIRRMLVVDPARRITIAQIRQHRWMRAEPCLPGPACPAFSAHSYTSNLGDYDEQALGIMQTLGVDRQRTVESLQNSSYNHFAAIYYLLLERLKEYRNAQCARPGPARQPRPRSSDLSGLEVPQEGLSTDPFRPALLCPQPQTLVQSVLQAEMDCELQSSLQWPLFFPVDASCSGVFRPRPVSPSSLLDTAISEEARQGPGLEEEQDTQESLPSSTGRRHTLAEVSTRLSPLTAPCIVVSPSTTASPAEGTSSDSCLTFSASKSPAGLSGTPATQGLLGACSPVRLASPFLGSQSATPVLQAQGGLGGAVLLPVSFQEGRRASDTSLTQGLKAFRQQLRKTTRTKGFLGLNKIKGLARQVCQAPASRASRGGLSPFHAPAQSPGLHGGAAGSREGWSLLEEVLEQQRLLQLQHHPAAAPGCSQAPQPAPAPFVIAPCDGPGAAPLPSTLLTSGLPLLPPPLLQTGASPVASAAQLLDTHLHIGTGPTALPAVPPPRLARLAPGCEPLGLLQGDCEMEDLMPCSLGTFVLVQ
Sequence of kinases (KINOMEscan panel) (Homo sapiens, UniProt Q96GD4) (Q96GD4 whole entry): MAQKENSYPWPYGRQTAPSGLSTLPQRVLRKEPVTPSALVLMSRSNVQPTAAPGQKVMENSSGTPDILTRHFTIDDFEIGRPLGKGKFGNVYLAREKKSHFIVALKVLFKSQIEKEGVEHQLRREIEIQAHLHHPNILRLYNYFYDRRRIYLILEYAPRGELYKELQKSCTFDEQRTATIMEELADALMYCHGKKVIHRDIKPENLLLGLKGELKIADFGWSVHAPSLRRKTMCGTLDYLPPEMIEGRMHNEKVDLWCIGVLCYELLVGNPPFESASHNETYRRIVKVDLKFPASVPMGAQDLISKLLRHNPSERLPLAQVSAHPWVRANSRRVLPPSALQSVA
Sequence of kinases (KINOMEscan panel) (Homo sapiens, UniProt P35916) (P35916 25-1363): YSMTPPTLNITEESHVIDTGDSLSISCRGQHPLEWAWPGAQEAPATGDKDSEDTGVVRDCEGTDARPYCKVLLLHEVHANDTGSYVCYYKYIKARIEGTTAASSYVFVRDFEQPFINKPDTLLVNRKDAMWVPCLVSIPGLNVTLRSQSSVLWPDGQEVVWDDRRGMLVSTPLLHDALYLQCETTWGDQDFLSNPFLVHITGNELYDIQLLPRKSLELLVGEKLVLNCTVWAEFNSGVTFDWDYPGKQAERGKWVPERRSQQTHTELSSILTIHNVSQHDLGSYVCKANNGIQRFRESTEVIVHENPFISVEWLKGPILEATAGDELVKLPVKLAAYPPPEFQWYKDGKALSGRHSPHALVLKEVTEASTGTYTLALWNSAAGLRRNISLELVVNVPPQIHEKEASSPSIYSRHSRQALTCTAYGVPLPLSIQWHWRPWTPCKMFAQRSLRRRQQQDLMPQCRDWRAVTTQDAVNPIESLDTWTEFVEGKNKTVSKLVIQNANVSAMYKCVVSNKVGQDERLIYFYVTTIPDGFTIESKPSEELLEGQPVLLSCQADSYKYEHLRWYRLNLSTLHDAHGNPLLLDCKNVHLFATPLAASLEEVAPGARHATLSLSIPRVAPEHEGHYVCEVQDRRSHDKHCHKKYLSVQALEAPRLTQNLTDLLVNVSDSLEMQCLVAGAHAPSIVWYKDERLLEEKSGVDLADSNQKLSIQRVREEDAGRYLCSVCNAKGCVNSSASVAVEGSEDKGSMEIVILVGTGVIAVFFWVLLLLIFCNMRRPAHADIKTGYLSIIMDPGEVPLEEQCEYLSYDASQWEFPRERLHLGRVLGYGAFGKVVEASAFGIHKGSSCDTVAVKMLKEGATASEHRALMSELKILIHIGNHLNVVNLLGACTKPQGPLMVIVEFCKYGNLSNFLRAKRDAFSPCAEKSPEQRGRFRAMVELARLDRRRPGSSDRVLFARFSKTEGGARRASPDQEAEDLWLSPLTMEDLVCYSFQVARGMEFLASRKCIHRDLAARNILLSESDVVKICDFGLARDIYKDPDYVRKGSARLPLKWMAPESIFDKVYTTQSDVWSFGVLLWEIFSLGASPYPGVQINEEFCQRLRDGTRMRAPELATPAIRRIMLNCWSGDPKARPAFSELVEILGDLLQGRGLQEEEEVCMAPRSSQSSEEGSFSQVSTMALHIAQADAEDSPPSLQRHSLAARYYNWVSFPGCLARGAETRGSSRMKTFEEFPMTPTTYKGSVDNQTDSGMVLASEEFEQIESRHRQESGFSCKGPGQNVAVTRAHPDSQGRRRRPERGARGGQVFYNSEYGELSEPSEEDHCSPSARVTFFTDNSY
Sequence of kinases (KINOMEscan panel) (Homo sapiens, UniProt P21127) (P21127 whole entry): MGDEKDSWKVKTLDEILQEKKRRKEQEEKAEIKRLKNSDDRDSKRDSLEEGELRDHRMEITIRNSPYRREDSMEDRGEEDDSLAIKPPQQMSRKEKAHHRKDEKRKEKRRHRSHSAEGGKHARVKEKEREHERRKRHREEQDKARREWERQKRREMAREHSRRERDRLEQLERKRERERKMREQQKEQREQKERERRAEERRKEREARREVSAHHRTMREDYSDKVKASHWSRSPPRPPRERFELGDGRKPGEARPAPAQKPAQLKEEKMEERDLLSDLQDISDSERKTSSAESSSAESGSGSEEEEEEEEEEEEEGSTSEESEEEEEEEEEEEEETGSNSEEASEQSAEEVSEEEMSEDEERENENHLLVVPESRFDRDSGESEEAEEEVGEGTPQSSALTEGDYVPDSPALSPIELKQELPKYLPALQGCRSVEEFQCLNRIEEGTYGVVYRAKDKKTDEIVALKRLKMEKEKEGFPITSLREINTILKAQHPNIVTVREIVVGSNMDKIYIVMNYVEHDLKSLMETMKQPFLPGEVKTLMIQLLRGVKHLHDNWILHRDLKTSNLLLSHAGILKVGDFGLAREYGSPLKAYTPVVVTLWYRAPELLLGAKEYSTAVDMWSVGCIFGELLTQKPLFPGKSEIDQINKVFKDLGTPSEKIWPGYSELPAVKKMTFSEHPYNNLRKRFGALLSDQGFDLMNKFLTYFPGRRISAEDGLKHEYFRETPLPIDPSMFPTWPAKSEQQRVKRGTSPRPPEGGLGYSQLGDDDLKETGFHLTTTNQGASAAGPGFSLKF
Sequence of kinases (KINOMEscan panel) (Homo sapiens, UniProt Q9NQU5) (Q9NQU5 whole entry): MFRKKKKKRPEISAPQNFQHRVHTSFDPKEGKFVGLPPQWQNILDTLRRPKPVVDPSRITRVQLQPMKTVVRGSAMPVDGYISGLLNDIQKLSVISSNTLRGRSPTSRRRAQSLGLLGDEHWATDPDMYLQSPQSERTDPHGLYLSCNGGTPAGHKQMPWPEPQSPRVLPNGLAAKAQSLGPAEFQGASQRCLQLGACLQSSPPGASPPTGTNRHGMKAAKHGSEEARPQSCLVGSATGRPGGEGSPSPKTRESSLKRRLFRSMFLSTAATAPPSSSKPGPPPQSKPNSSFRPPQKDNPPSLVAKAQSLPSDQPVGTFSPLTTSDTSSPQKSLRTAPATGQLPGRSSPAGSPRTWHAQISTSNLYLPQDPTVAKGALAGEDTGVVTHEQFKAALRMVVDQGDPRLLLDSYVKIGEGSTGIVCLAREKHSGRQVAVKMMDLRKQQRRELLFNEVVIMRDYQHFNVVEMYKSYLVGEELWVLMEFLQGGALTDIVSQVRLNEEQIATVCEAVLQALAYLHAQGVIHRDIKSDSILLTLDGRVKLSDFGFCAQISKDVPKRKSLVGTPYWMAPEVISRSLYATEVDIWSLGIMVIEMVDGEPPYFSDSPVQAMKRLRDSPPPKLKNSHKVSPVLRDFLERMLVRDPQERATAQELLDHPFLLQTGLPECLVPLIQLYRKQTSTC

| Compound | KINOMEscan TLK1 [1] | KINOMEscan AURKB [2] | KINOMEscan SIK1 [3] | KINOMEscan CDK11B [4] | KINOMEscan FLT4 [5] | KINOMEscan PAK6 [6] | KINOMEscan NEK11 [7] | KINOMEscan DAPK3 [8] |
| --- | --- | --- | --- | --- | --- | --- | --- | --- |
| Cc1cccc(-c2nc(Nc3ccc4nn(C)cc4c3)c3ccccc3n2)n1 [NK167] | 0 | 0 | 1 | 10 | 0 | 0 | 0 | 0 |
| Cc1cccc(-c2nc(N(C)c3ccc4ncsc4c3)c3ccccc3n2)n1 [NK-161] | 0 | 0 | 12 | 1 | 1 | 0 | 2 | 0 |
